Assays:
Type in all cases: in vivo
[1] = system: Abutilon theophrasti; assay: Pre-emergence herbicidal activity, ABUTH; set-up: key: 5=total damage to plant; 0=no damage to plant; details: 1000 g/Ha, sprayed pre-emergence, evaluated after 13 days, scale 0-5
Summary of the method: (§1)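 Compounds are applied pre-emergence as an aqueous spray, formulated in 50:50 acetone/water containing 0.5% Tween 20, to pots sown one day earlier. Plants grow in a controlled glasshouse and are scored 13 days later for damage from 0 to 5.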

[2] = system: Amaranthus retroflexus; assay: Pre-emergence herbicidal activity, AMARE; set-up: key: 5=total damage to plant; 0=no damage to plant; details: 1000 g/Ha, sprayed pre-emergence, evaluated after 13 days, scale 0-5
Summary of the method: as §1

[3] = system: Setaria faberi; assay: Pre-emergence herbicidal activity, SETFA; set-up: key: 5=total damage to plant; 0=no damage to plant; details: 1000 g/Ha, sprayed pre-emergence, evaluated after 13 days, scale 0-5
Summary of the method: as §1

[4] = system: Echinochloa crus-galli; assay: Pre-emergence herbicidal activity, ECHCG; set-up: key: 5=total damage to plant; 0=no damage to plant; details: 1000 g/Ha, sprayed pre-emergence, evaluated after 13 days, scale 0-5
Summary of the method: as §1

[5] = system: Alopecurus myosuroides; assay: Pre-emergence herbicidal activity, ALOMY; details: 1000 g/Ha, sprayed pre-emergence, evaluated after 13 days, scale 0-5
Summary of the method: as §1

[6] = system: Zea mays; assay: Pre-emergence herbicidal activity, ZEAMX; details: 1000 g/Ha, sprayed pre-emergence, evaluated after 13 days, scale 0-5
Summary of the method: as §1

[7] = system: Setaria faberi; assay: Post-emergence herbicidal activity, SETFA; set-up: key: 5=total damage to plant; 0=no damage to plant; details: 1000 g/Ha, sprayed post-emergence (8 days cultivation), evaluated after 13 days, scale 0-5
Summary of the method: (§2)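 Seeds were sown in standard soil and cultivated for 8 days under controlled glasshouse conditions. Seedlings were then sprayed with an aqueous solution of the formulated compound containing 0.5% Tween 20. Injury was rated after a further 13 days, where 5 indicated total damage.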

[8] = system: Abutilon theophrasti; assay: Post-emergence herbicidal activity, ABUTH; set-up: key: 5=total damage to plant; 0=no damage to plant; details: 1000 g/Ha, sprayed post-emergence (8 days cultivation), evaluated after 13 days, scale 0-5
Summary of the method: as §2

[9] = system: Amaranthus retroflexus; assay: Post-emergence herbicidal activity, AMARE; set-up: key: 5=total damage to plant; 0=no damage to plant; details: 1000 g/Ha, sprayed post-emergence (8 days cultivation), evaluated after 13 days, scale 0-5
Summary of the method: as §2

[10] = system: Alopecurus myosuroides; assay: Post-emergence herbicidal activity, ALOMY; set-up: key: 5=total damage to plant; 0=no damage to plant; details: 1000 g/Ha, sprayed post-emergence (8 days cultivation), evaluated after 13 days, scale 0-5
Summary of the method: as §2

[11] = system: Echinochloa crus-galli; assay: Post-emergence herbicidal activity, ECHCG; set-up: key: 5=total damage to plant; 0=no damage to plant; details: 1000 g/Ha, sprayed post-emergence (8 days cultivation), evaluated after 13 days, scale 0-5
Summary of the method: as §2

[12] = system: Zea mays; assay: Post-emergence herbicidal activity, ZEAMX; details: 1000 g/Ha, sprayed post-emergence (8 days cultivation), evaluated after 13 days, scale 0-5
Summary of the method: as §2

Structure (SMILES) | ABUTH damage score, application pre-emergence [1] | AMARE damage score, application pre-emergence [2] | SETFA damage score, application pre-emergence [3] | ECHCG damage score, application pre-emergence [4] | ALOMY damage score, application pre-emergence [5] | ZEAMX damage score, application pre-emergence [6] | SETFA damage score, application post-emergence [7] | ABUTH damage score, application post-emergence [8] | AMARE damage score, application post-emergence [9] | ALOMY damage score, application post-emergence [10] | ECHCG damage score, application post-emergence [11] | ZEAMX damage score, application post-emergence [12]
CON1C(=O)N(c2cc(C(C)(C)C)ncn2)C(O)C1O (stereo not drawn) [Example A9] | 0 | 5 | 1 | 2 | 3 | 1 | 4 | 5 | 5 | 4 | 4 | 1
CN1CC(O)N(c2cc(C(C)(C)C#N)ncn2)C1=O (stereo not drawn) [Example A2] | 4 | 5 | 5 | 4 | 4 | 3 | 5 | 5 | 5 | 5 | 5 | 3
CCCC1C(O)N(c2cc(C(C)(C)C)ncn2)C(=O)N1C (stereo not drawn) [Example A17] | 4 | 5 | 5 | 5 | 4 | 3 | 5 | 5 | 5 | 3 | 5 | 4

From patent US9487502B2, “Chemical compounds” (Syngenta Limited, priority 2013, dated 2016)
